Common to all, as to assay type: cell-based, human
Data set [1] concerns T98G glioblastoma cells. Description: Apoptosis assay by sub-G0/G1 fraction estimation (nuclear fragmentation, PI/FACS). Particulars: for apoptotic nuclear fragmentation (sub-G0/G1 fraction): T98G cells depleted of PME-1 (PME-1 siRNA 48 hrs), drug treatment 24 hrs; for effect on PME-1 siRNA and STS mediated apoptosis (nuclear fragmentation): T98G. The procedure:
The percentage of the sub-G0/G1 fraction containing fragmented nuclei stained with Propidium iodide (PI) was taken as a measure of apoptotic cells. 3.5-4×10^4 cells were plated in 24-well plates, transfected with siRNA for 48 hrs, and then treated with indicated concentration of test compounds in fresh media. After 24 hrs of treatment, both floating and adherent cells were harvested by centrifugation. Cell pellets were resuspended in 400 μl of hypotonic PI buffer, containing 40 mM Tri-sodium citrate (Merck), 0.3% Triton X-100 (Sigma-Aldrich) and 50 μg/ml Propidium iodide (Sigma-Aldrich) in PBS, and incubated at room temperature for 10 minutes in dark. The flow cytometric analysis of PI stained nuclei was performed and the recorded data was analyzed using a FACScan flow cytometer and software (Becton Dickinson) respectively.
In experiments using pan-caspase inhibitor, cells were kept in growth media containing 30 μM Z-VAD-FMK starting from 18 hrs after transfection till the PI staining.
The T98G cells transfected with siRNA for 48 hrs were given drug treatments for 24 hrs and were subsequently lysed, and their nuclei were stained using hypotonic propidium iodide buffer. The lysates were analysed for changes in the sub-G0/G1 fraction of fragmented nuclei by flow cytometry (FACS) (FIG. 1B). Condensation and fragmentation of nucleus is a key biochemical feature of apoptosis and sub-G0/G1 analysis has been widely used for detection of apoptosis (FEBS Lett., 1986, 194(2):347-50; Cytometry, 1991, 12(4):323-329; Nature Protocols, 2006, 1:1458-1461).

Data set [2] has as its system U251MG glioblastoma cells. Description: Colony formation assay, U251MG. The conditions noted are these: PME-1 depleted versus scrambled siRNA, 2 days of treatment. The text has this: (§1) Cells plated in very low density (4-6×10^3) in 6-well plates were allowed to grow for about 7 days until they form small colonies. These cells were then transfected with Scrambled or PME-1 siRNA using Lipofectamine RNAiMAX reagent (Invitrogen) according to the manufacturer's instructions. After 48 hrs, treatments were given with indicated concentration of chemical drugs for another 48 hrs. Cell colonies were washed with PBS, fixed with 3.7% formaldehyde and stained with 0.2% crystal violet solution (made in 10% ethanol) for 15 minutes at room temperature each. Excess stain was removed by repeated washings with PBS. Plates were dried and pictures were taken with Olympus SP-600UZ camera or Epson perfection […] scanner and analysed with ImageJ.

Data set [3] concerns U87MG glioblastoma cells. The data set can be described thus: Colony formation assay, U87MG. Particulars: PME-1 depleted versus scrambled siRNA, 2 days of treatment.
Excerpt: as §1

Data set [4] relates to T98G glioblastoma cells. Description: Colony formation assay, T98G. An excerpt:
(§2) Cells plated in very low density (4-6×10^3) in 6-well plates were allowed to grow for about 7 days until they form small colonies. These cells were then transfected with Scrambled or PME-1 siRNA using Lipofectamine RNAiMAX reagent (Invitrogen) according to the manufacturer's instructions. After 48 hrs, treatments were given with indicated concentration of chemical drugs for another 48 hrs. Cell colonies were washed with PBS, fixed with 3.7% formaldehyde and stained with 0.2% crystal violet solution (made in 10% ethanol) for 15 minutes at room temperature each. Excess stain was removed by repeated washings with PBS. Plates were dried and pictures were taken with Olympus SP-600UZ camera or Epson perfection V700 scanner and analysed with ImageJ.
(§3) Next, the effect of PME-1 expression on the sensitivity of glioblastoma cells to STS was tested by colony formation assay in T98G glioblastoma cells and another glioblastoma cell line U118MG. For this experiment, these cells were grown in 6-well plates until the formation of small colonies which were then transfected with Scrambled or PME-1 siRNA for 48 hrs followed by treatment with STS at the indicated concentrations for another 48 hrs. […] Similar results were obtained with both glioblastoma cell lines.

The test system of data set [5] is U118MG glioblastoma cells. The data set can be described thus: Colony formation assay, U118MG.
Excerpt: as §2, §3

Data set [6] has as its system T98G glioblastoma cells. Description: Cell viability assay, CellTiter-glo (CTG). The protocol:
Cell viability was determined by CellTiter-glo (CTG) assay which measures the cellular ATP levels as an indicator of metabolically active and viable cells. CTG reagent kit was purchased from Promega Corp. and assays were performed according to their recommendations. Assays were performed in white polystyrene 96-well plates (Nunc, Thermo Fisher Scientific Inc.) and luminescence was measured with Perkin Elmer Victor2 Plate Reader.
For orientation: Cellular ATP, detected with luciferase, serves as a proxy for viable cell number.

The test system of data set [7] is Caspase-3/7 in T98G cells. The data set can be described thus: Caspase-3 and -7 activity, Caspase-Glo 3/7 Assay. The protocol:
Caspase-3 and -7 activity was measured by luminescence based method, which utilize a substrate containing Caspase-3 and -7 target peptide DEVD, named Caspase-Glo 3/7 Assay (Promega Corp.). Assays were performed in white polystyrene 96-well plates (Nunc, Thermo Fisher Scientific Inc.) according to manufacturer's instructions and luminescence was measured with Perkin Elmer Victor2 Plate Reader.

Where [8] appears, read: PME-1 siRNA 48 hrs then drug 48 hrs.
Setting [9] is: scrambled siRNA (intact PME-1), drug 48 hrs.

“Also recorded” adds a separate entry of the source.

For `C[C@]12O[C@H](C[C@]1(O)CO)n1c3ccccc3c3c4c(c5c6ccccc6n2c5c31)CNC4=O` [CEP-701, (9S,10S,12R)-2,3,9,10,11,12-Hexahydro-10-hydroxy-10-(hydroxymethyl)-9-methyl-9,12-epoxy-1H-diindolo[1,2,3-fg:3′,2′,1′-kl]pyrrolo[3,4-i][1,6]benzo di-azocin-1-one], the “apoptotic nuclear fragmentation (sub-G0/G1 fraction)” value in data set [1] is recorded as “levels even higher than STS itself”.
Consider `CC1CNCCN1S(=O)(=O)c1cccc2cnccc12` (centres unmarked) [H7], for which the “apoptotic nuclear fragmentation (sub-G0/G1 fraction)” value in data set [1] is “moderate”.
Turning to `COC(=O)[C@@]1(O)C[C@H]2O[C@]1(C)n1c3ccccc3c3c4c(c5c6ccccc6n2c5c31)C(=O)NC4` [K252a], the “apoptotic nuclear fragmentation (sub-G0/G1 fraction)” value in data set [1] is listed as “levels even higher than STS itself”. The “cell killing activity, colony formation” value in data set [2] and in data set [3] was “enhanced the cell killing activity” throughout.
As to `CO[C@@H]1[C@H](N(C)C(=O)c2ccccc2)C[C@H]2O[C@]1(C)n1c3ccccc3c3c4c(c5c6ccccc6n2c5c31)C(=O)NC4` [PKC412, [9S-(9α, 10β,11β,13α)]-N-(2,3,10,11,12,13-Hexahydro-10-methoxy-9-methyl-1-oxo-9,13-epoxy-1H,9H-diindolo[1,2,3-gh:3′,2′,1′-lm]pyrrolo[3,4-j][1,7]benzodiazonin-11-yl)-N-methyl benzamide], the “apoptotic nuclear fragmentation (sub-G0/G1 fraction)” value in data set [1] is given as “levels even higher than STS itself”. The “cell killing activity, colony formation” value in data set [2] and in data set [3] was “enhanced the cell killing activity” in each case.
On to `O=C1NC(=O)c2c1c1c3ccccc3n3c1c1c2c2ccccc2n1C1CCC3O1` [SB 218078, 9,10,11,12-Tetrahydro-9,12-epoxy-1H-diindolo[1,2,3-fg:3′,2′,1′-kl]pyrrolo[3,4-i][1,6]benzodi-azocine-1,3(2H)-dione], for which the “apoptotic nuclear fragmentation (sub-G0/G1 fraction)” value in data set [1] was “moderate levels of apoptosis at higher concentration”.
In the case of `CN[C@@H]1C[C@H]2O[C@@](C)([C@@H]1OC)n1c3ccccc3c3c4c(c5c6ccccc6n2c5c31)C(=O)NC4` [STS, [9S-(9α,10β,11β,13α)]-2,3,10,11,12,13-Hexa-hydro-10-methoxy-9-methyl-11-(methylamino)-9,13-epoxy-1H,9H-diindolo[1,2,3-gh:3′,2′,1′-lm]pyrrolo[3,4-j][1,7]benzo diazonin-1-one], the “apoptotic nuclear fragmentation (sub-G0/G1 fraction)” value in data set [1] is listed as “very high level of nuclear fragmentation; also recorded: induce apoptosis in a dose dependent manner; also recorded: highly sensitive to STS induced cell death even at lowest concentrations”. For the same compound, the “concentration at which drug alone started inducing cell death” value in data set [1] (control (Scrambled siRNA transfected) T98G cells) is recorded as “higher than 50 nM”. Moreover, the “concentration at which limited cell death was observed with drug alone” value in data set [1] (untransfected T98G cells) is “higher than 30 nM”. Besides, the “colony formation (colonogenic potential)” value in data set [4] (setting [8]) was “almost complete loss of colonies”; in data set [4] (setting [9]), “did not respond well”; in data set [5] (setting [8]), “almost complete loss of colonies”; in data set [5] (setting [9]), “did not respond well”. The “cell killing activity, colony formation” value in data set [2] and in data set [3] was “enhanced the cell killing activity” each time. Besides, the “cell viability (CTG)” value in data set [6] (PME-1 siRNA plus STS treatment) is “drastic decrease in the cell viability”. In addition, in data set [7] (PME-1 depletion in combination with STS treatment), the “increase of Caspase-3/7 activity” value is listed as “above 6 fold”.
For `CN[C@@H]1C[C@H]2O[C@@](C)([C@@H]1OC)n1c3ccccc3c3c4c(c5c6ccccc6n2c5c31)C(=O)N[C@H]4O` [UCN-01, (9S)-2,3,10,11,12,13-Hexahydro-3α-hydroxy-10α-methoxy-9-methyl-11α-methyl amino-9β,13β-epoxy-1H,9H-diindolo[1,2,3-gh:3′,2′,1′-lm]pyrrolo[3,4-j][1,7]benzo diazonin-1-one], in data set [1], the “apoptotic nuclear fragmentation (sub-G0/G1 fraction)” value is “levels even higher than STS itself”.
For `C=C1[C@@H](O)[C@@H]2O[C@]3(CC[C@H](/C=C/[C@@H](C)[C@@H]4CC(C)=C[C@@]5(O[C@H](C[C@@](C)(O)C(=O)O)CC[C@H]5O)O4)O3)CC[C@H]2O[C@@H]1[C@@H](O)C[C@H](C)[C@H]1O[C@@]2(CCCCO2)CC[C@H]1C` [okadaic acid], in data set [1] (PP2A inhibitor pre-treatment 24 hrs prior STS treatment), the “effect on PME-1 siRNA and STS mediated apoptosis (nuclear fragmentation)” value is reported as “sufficient to rescue cells”.
For the compound “PME-1 siRNA: PME-1 siRNA 5′-GGA AGU GAG UCU AUA AGC A-3′; SEQ ID NO:1 (GGAAGUGAGUCUAUAAGCA; listed as RNA, chemistry not given here)”, the “cell viability (CTG)” value in data set [6] (PME-1 siRNA alone) is recorded as “reduced cell viability by small fraction”. In addition, the “increase of Caspase-3/7 activity” value in data set [7] (PME-1 depletion alone) was “more than 2 fold”.
In the case of TRAIL, the “apoptotic nuclear fragmentation (sub-G0/G1 fraction)” value in data set [1] is on record as “did not show the same trend”.
On to z-VAD-fmk, for which the “effect on PME-1 siRNA and STS mediated apoptosis (nuclear fragmentation)” value in data set [1] (PME-1 siRNA plus STS, pan-caspase inhibitor 30 μM throughout the experiment) is “complete reversal”.

The values above are taken from patent US10094834B2, “Method of selecting individualized brain cancer therapy” (TURUN YLIOPISTO, priority 2012, dated 2018).
